Results reported in ChEMBL document CHEMBL5260833, “An overview of quinazolines: Pharmacological significance and recent developments” (Eur J Med Chem, 2018).
Values after ≈ are worked out from the molar mass of the structure shown. Blank lines part the entries; values can stand above or below the compound they belong to.

What was measured:
Escherichia coli [1] = test: Antibacterial activity against Escherichia coli assessed as zone of inhibition at 100 ppm; type: functional; conditions: read-out: IZ
Staphylococcus aureus [2] = test: Antibacterial activity against Staphylococcus aureus assessed as zone of inhibition at 100 ppm; type: functional; conditions: read-out: IZ
Homo sapiens [3] = organism: Homo sapiens; test: Immunosuppressive activity in human T cell; type: functional, organism-based
Homo sapiens [4] = organism: Homo sapiens; test: Immunosuppressive activity in human B cell; type: functional, organism-based
Mus musculus = test: Analgesic activity in […] albino mouse at 20 mg/kg, po measured after 2 hrs by Tail-Flick technique relative to control; type: functional
[5] = CNS toxicity in po dosed mouse assessed as depression in CNS; type: organism-based; conditions: in vivo
[6] = tested on: Staphylococcus epidermidis; test: Antimicrobial activity against Staphylococcus epidermidis assessed as bacterial growth inhibition; type: functional
Staphylococcus aureus [7] = test: Antimicrobial activity against Staphylococcus aureus assessed as bacterial growth inhibition; type: functional
Pseudomonas aeruginosa = test: Antimicrobial activity against Pseudomonas aeruginosa assessed as bacterial growth inhibition; type: functional
Citrobacter freundii = test: Antimicrobial activity against Citrobacter freundii assessed as bacterial growth inhibition; type: functional
Klebsiella oxytoca = test: Antimicrobial activity against Klebsiella oxytoca assessed as bacterial growth inhibition; type: functional
Escherichia coli [8] = test: Antimicrobial activity against Escherichia coli assessed as bacterial growth inhibition; type: functional
Mycolicibacterium phlei = test: Antimicrobial activity against Mycobacterium phlei assessed as bacterial growth inhibition; type: functional
Proteus mirabilis = test: Antimicrobial activity against Proteus mirabilis assessed as bacterial growth inhibition; type: functional
Proteus vulgaris = test: Antimicrobial activity against Proteus vulgaris assessed as bacterial growth inhibition; type: functional
Candida albicans = test: Antimicrobial activity against Candida albicans assessed as bacterial growth inhibition; type: functional
[9] = tested on: Staphylococcus saprophyticus; test: Antimicrobial activity against Staphylococcus saprophyticus assessed as bacterial growth inhibition; type: functional
Bacillus subtilis = test: Antimicrobial activity against Bacillus subtilis assessed as bacterial growth inhibition; type: functional
Micrococcus luteus = test: Antimicrobial activity against Micrococcus luteus assessed as bacterial growth inhibition; type: functional

SMILES: Cc1nc2ccc(I)cc2c(=O)n1/N=C/c1cc(Br)cc(Br)c1O
- zone of inhibition at 100 µg/mL (Escherichia coli [1]): 14 mm
- zone of inhibition at 100 µg/mL (Staphylococcus aureus [2]): 16 mm

- IC50 (Homo sapiens [3]): 1.41 µM
- IC50 (Homo sapiens [4]): 2.93 µM
SMILES: Nc1nc(N)c2c(CCCc3ccc(C(=O)N[C@@H](C[C@@H](F)C(=O)O)C(=O)O)cc3)c[nH]c2n1

SMILES: CC/C(C)=N/n1c(S)nc2sc3c(c2c1=O)CCCC3
- Activity (Mus musculus): 72%

- IC50 (Homo sapiens [3]): 0.00567 µM
- IC50 (Homo sapiens [4]): 0.00808 µM
SMILES: Cc1nc2ccc(CN(C)c3ccc(C(=O)N[C@@H](C[C@@H](F)C(=O)O)C(=O)O)s3)cc2c(=O)[nH]1

SMILES: CCN(CC)C(=S)Nn1c(SC)nc2ccccc2c1=O
- Activity (Mus musculus): 67%

SMILES: Cc1nc2ccc(Br)cc2c(=O)n1/N=C/c1cc(Br)cc(Br)c1O
- zone of inhibition at 100 µg/mL (Escherichia coli [1]): 14 mm
- zone of inhibition at 100 µg/mL (Staphylococcus aureus [2]): 16 mm

SMILES: Cc1nc2ccc(I)cc2c(=O)n1/N=C/c1cc(I)cc(I)c1O
- zone of inhibition at 100 µg/mL (Escherichia coli [1]): 14 mm
- zone of inhibition at 100 µg/mL (Staphylococcus aureus [2]): 16 mm

- IC50 (Homo sapiens [3]): 2.3 µM
- IC50 (Homo sapiens [4]): 2.93 µM
SMILES: Nc1nc2c(c(=O)[nH]1)C[C@@H](CCc1ccc(C(=O)N[C@@H](C[C@H](F)C(=O)O)C(=O)O)cc1)CN2

- IC50 (Homo sapiens [3]): 2.3 µM
- IC50 (Homo sapiens [4]): 2.93 µM
SMILES: Nc1nc2c(c(=O)[nH]1)C[C@@H](CCc1ccc(C(=O)N[C@@H](C[C@@H](F)C(=O)O)C(=O)O)cc1)CN2

SMILES: O=C(CO)Nc1ccc2nc(CF)n(-c3ccccc3CO)c(=O)c2c1
- LD50 [5]: > 1000 mg/kg

SMILES: CCC(CC)=NNC1=Nc2ccccc2C(=O)C1c1ccccc1 (stereo unspecified)
- Activity (Mus musculus): 72%

SMILES: Cc1nc2ccc(Br)cc2c(=O)n1/N=C/c1cc(I)cc(I)c1O
- zone of inhibition at 100 µg/mL (Escherichia coli [1]): 14 mm
- zone of inhibition at 100 µg/mL (Staphylococcus aureus [2]): 16 mm

- IC50 (Homo sapiens [3]): 0.00567 µM
- IC50 (Homo sapiens [4]): 0.00808 µM
SMILES: C#CCN(Cc1ccc2nc(C)[nH]c(=O)c2c1)c1ccc(C(=O)N[C@@H](C[C@H](F)C(=O)O)C(=O)O)cc1

SMILES: CC(=O)Nc1ccc2nc(CF)n(-c3ccccc3CO)c(=O)c2c1
- LD50 [5]: > 1000 mg/kg

SMILES: O=C([O-])Cc1ccccc1Nc1c(Cl)cccc1Cl.[Na+] [DICLOFENAC SODIUM]
- Activity (Mus musculus): 60%

SMILES: CC(=O)Nc1ccc2nc(CSCC(NC(C)=O)C(=O)O)n(-c3ccccc3C)c(=O)c2c1 (stereo unspecified)
- LD50 [5]: > 1000 mg/kg

- IC50 (Homo sapiens [3]): 0.0134 µM
- IC50 (Homo sapiens [4]): 0.0275 µM
SMILES: CN(Cc1cnc2nc(N)nc(N)c2n1)c1ccc(C(=O)N[C@@H](CCC(=O)O)C(=O)O)cc1 [METHOTREXATE]

- MIC [6]: 125 µg/mL (≈ 227 µM)
- MIC (Staphylococcus aureus [7]): 125 µg/mL (≈ 227 µM)
- MIC (Pseudomonas aeruginosa): 125 µg/mL (≈ 227 µM)
- MIC (Citrobacter freundii): 125 µg/mL (≈ 227 µM)
- MIC (Klebsiella oxytoca): 125 µg/mL (≈ 227 µM)
- MIC (Escherichia coli [8]): 125 µg/mL (≈ 227 µM)
- MIC (Mycolicibacterium phlei): 125 µg/mL (≈ 227 µM)
- MIC (Proteus mirabilis): 125 µg/mL (≈ 227 µM)
- MIC (Proteus vulgaris): 125 µg/mL (≈ 227 µM)
- MIC (Candida albicans): 125 µg/mL (≈ 227 µM)
- MIC [9]: 125 µg/mL (≈ 227 µM)
- MIC (Bacillus subtilis): 125 µg/mL (≈ 227 µM)
- MIC (Micrococcus luteus): 125 µg/mL (≈ 227 µM)
SMILES: O=c1c2ccc(Cl)cc2nc(/C=C/c2ccc(Cl)cc2)n1-c1ccc(OCC(O)CN2CCCCC2)cc1 (stereo unspecified)

SMILES: Cc1nc2ccc(I)cc2c(=O)n1/N=C/c1cc(Cl)cc(Cl)c1O
- zone of inhibition at 100 µg/mL (Escherichia coli [1]): 14 mm
- zone of inhibition at 100 µg/mL (Staphylococcus aureus [2]): 16 mm

SMILES: CCCCNC(=O)Oc1ccc(-n2c(/C=C/c3ccc(Cl)cc3)nc3cc(Cl)ccc3c2=O)cc1
- MIC [6]: 125 µg/mL (≈ 246 µM)
- MIC (Staphylococcus aureus [7]): 125 µg/mL (≈ 246 µM)
- MIC (Pseudomonas aeruginosa): 125 µg/mL (≈ 246 µM)
- MIC (Citrobacter freundii): 125 µg/mL (≈ 246 µM)
- MIC (Klebsiella oxytoca): 125 µg/mL (≈ 246 µM)
- MIC (Escherichia coli [8]): 125 µg/mL (≈ 246 µM)
- MIC (Mycolicibacterium phlei): 125 µg/mL (≈ 246 µM)
- MIC (Proteus mirabilis): 125 µg/mL (≈ 246 µM)
- MIC (Proteus vulgaris): 125 µg/mL (≈ 246 µM)
- MIC (Candida albicans): 125 µg/mL (≈ 246 µM)
- MIC [9]: 125 µg/mL (≈ 246 µM)
- MIC (Bacillus subtilis): 125 µg/mL (≈ 246 µM)
- MIC (Micrococcus luteus): 125 µg/mL (≈ 246 µM)

SMILES: Cc1ccccc1-n1c(CF)nc2ccc(NC(=O)CO)cc2c1=O
- LD50 [5]: > 1000 mg/kg
